Ten molecules from patent publication US9085786B2, “Process for the production of polyamines” (BASF SE, priority 2009, dated 2015) can be followed below.

The target of one data set is T1, AOX (alcohol oxidase) (Komagataella phaffii, UniProt P04842).
T1 sequence (P04842 1-663): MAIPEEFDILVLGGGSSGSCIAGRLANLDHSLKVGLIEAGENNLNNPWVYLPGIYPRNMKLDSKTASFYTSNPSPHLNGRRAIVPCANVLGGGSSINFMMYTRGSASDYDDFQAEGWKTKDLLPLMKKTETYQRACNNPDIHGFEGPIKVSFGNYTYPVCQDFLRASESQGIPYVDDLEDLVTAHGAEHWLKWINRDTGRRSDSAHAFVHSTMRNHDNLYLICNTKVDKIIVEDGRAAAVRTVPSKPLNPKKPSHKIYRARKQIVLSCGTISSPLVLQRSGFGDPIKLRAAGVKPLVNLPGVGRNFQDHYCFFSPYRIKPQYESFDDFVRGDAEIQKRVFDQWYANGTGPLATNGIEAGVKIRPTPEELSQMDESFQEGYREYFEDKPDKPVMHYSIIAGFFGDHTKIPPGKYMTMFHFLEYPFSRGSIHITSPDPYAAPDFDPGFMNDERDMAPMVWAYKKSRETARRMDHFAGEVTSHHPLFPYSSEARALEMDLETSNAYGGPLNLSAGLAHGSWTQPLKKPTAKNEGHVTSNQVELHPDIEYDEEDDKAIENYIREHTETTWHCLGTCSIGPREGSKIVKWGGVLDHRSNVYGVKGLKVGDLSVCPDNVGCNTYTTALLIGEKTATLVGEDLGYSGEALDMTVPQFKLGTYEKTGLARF
It is filed as biochemical. Particulars: for Relative activity / Vmax: pH 7.0, 100 mM MOPS-buffer; for Relative activity: ethanol = 100; for Vmax: compound as substrate. The text has this:
In the AOX approach cofactor regeneration is not required. The reaction is further driven by the Catalase-catalyzed decomposition of hydrogen peroxide. […]
The enzyme was obtained from commercially available from Sigma Aldrich.
Reaction followed […] preference of one enantiomer over the other as substrate, as defined by the division of the specificity constants. The specificity constant is defined as kcat/Km.

The test system of data set [1] is HLADH (Horse Liver Alcohol Dehydrogenase). The data set can be described thus: Kinetic constants for HLADH, spectrophotometric assay of NADH formation at 340 nm. It is filed as biochemical, Equus caballus. Particulars: for Vmax / Relative activity / Km: pH 9.1, 100 mM CHES-buffer; for Vmax / Km: compound as substrate; for Relative activity: ethanol = 100; for E-value: pH 9.1, preference of one enantiomer over the other, ratio of specificity constants kcat/Km. The text has this:
In the HLADH approach cofactor regeneration is accomplished by the use of vinyl acetate. Vinyl acetate rapidly hydrolyzes at pH 9.1, decomposing into acetic acid and acetic aldehyde. The aldehyde can be reduced by HLADH into ethanol, thereby forming NAD^+ from NADH. Unreacted acetic aldehyde can be removed by bubbling N2 after deactivating the enzyme with EDTA or H2O2. For the alcohol dehydrogenase HLADH the reaction was spectrophotometrically followed by the formation of NADH at 340 nm. Different concentrations of the various amino alcohols were used to obtain the Michaelis-Menten kinetic constants.
This reaction was performed at pH 9.1. The enzyme was obtained from commercially available from Sigma Aldrich.
Reaction catalysed by HLADH was followed spectrophotometrically at 340 nm, by the formation of NADH.

Substrate in data set [2]: CCO
The data set can be described thus: purified protein, by the assay type. Particulars: other: AOX, pH 7.0, 100 mM MOPS-buffer, compound as substrate.

Where only a bound is given, the exact number is not on record here.

`CC(O)CN` (racemic) [1-Amino-propan-2-ol (rac), 1-Amino-propan-2-ol]: on AOX (alcohol oxidase), the Relative activity came out at 0%. In data set [1], the Vmax stood at 0 µmol/min/mg and the Relative activity came to 0%.

With `NCC(O)c1ccccc1` (stereo not drawn) [2-Amino-1-phenyl ethanol], the “Catalysis of the reaction and appearance of aldehyde” value on AOX (alcohol oxidase) (ABTS replaced by pyrogallol or purpald, rates not reproducible) is “the enzyme was catalysing the reaction and the appearance of aldehyde”.

As to `NCCO` [2-Amino-ethanol], the values for the Vmax entry (on AOX (alcohol oxidase); in data set [1]) were “Very low” and under 0.005 µmol/min/mg, respectively. Also, the Relative activity (at AOX (alcohol oxidase); in data set [1]) was about 0% in each case.

As to `NCCCO` [3-Amino-propan-1-ol], on AOX (alcohol oxidase), the Vmax stood at 0.021 µmol/min/mg and the Relative activity worked out at 0.18%. In data set [1], the Km amounted to 13 mM, the Vmax came out at 0.17 µmol/min/mg and the Relative activity is on record as 11%.

As for `CCO` [Ethanol, reference compound], on AOX (alcohol oxidase), the Relative activity came to 100%. In data set [1], the Km is 0.6 mM, the Vmax was 1.5 µmol/min/mg and the Relative activity came out at 100%.

`NC[C@H](O)c1ccccc1` [R-2-Amino-1-phenyl-ethanol]: in data set [1], the Vmax was under 0.002 µmol/min/mg, the Relative activity is about 0% and the E-value is on record as over 100.

On to `C[C@@H](N)CO` [R-2-Amino-propan-1-ol], for which, on AOX (alcohol oxidase), the Vmax amounted to 0.10 µmol/min/mg and the Relative activity came to 0.88%. Besides, at AOX (alcohol oxidase) (pH 7.0, preference of one enantiomer over the other, ratio of specificity constants kcat/Km), the E-value stood at 3.6. In addition, in data set [1], the Vmax was under 0.0007 µmol/min/mg, the Relative activity is reported as about 0% and the E-value was over 300.

For the molecule `NC[C@@H](O)c1ccccc1` [S-2-Amino-1-phenyl-ethanol], in data set [1], the Km worked out at 6.2 mM, the Vmax stood at 0.21 µmol/min/mg and the Relative activity was 14%.

As for `C[C@H](N)CO` [S-2-Amino-propan-1-ol], on AOX (alcohol oxidase), the Vmax turned out to be 0.37 µmol/min/mg and the Relative activity amounted to 3.2%. For the same molecule, in data set [1], the Km turned out to be 6.3 mM, the Vmax worked out at 0.21 µmol/min/mg and the Relative activity came out at 14%.

B1: AOX (alcohol oxidase) (Komagataella phaffii GS115) (protein)
chain: T1 sequence (P04842 1-663)
Turning to B1, in data set [2], the Km is on record as 1.3 mM and the Vmax worked out at 12 µmol/min/mg.

One may read the Vmax as the rate approached at saturating substrate. One may read the Km as the concentration of substrate that gives half-maximal velocity.
